This note sets out measurements from patent US10130693B2, “Peptides, combination of peptides and scaffolds for use in immunotherapeutic treatment of various cancers” (Immatics Biotechnologies GmbH, priority 2015, dated 2018).

For this assay, the system named is HLA-A*24. The experiment in a line: MHC binding assay, UV-ligand exchange with beta2m ELISA (exchange yield), HLA-A*24. The arrangement: species or system human. The note with it: binding to HLA-A*24, UV-ligand exchange. An excerpt: Candidate peptides for T cell based therapies according to the present invention were further tested for their MHC binding capacity (affinity). The individual peptide-MHC complexes were produced by UV-ligand exchange, where a UV-sensitive peptide is cleaved upon UV-irradiation, and exchanged with the peptide of interest as analyzed. Only peptide candidates that can effectively bind and stabilize the peptide-receptive MHC molecules prevent dissociation of the MHC complexes. To determine the yield of the exchange reaction, an ELISA was performed based on the detection of the light chain (β2m) of stabilized MHC complexes. The assay was performed as generally described in Rodenko et al. (Rodenko et al., 2006).
96 well MAXISorp plates (NUNC) were coated over night with 2 ug/ml streptavidin in PBS at room temperature, washed 4× and blocked for 1 h at 37° C. in 2% BSA containing blocking buffer. […] Peptide-MHC monomers of the UV-exchange reaction were diluted 100 fold in blocking buffer. Samples were incubated for 1 h at 37° C., washed four times, incubated with 2 ug/ml HRP conjugated anti-β2m for 1h at 37° C., washed again and detected with TMB solution that is stopped with […]. Absorption was measured at 450 nm. Candidate peptides that show a high exchange yield (preferably higher than 50%, most preferred higher than 75%) are generally preferred for a generation and production of antibodies or fragments thereof, and/or T cell receptors or fragments thereof, as they show sufficient avidity to the MHC molecules and prevent dissociation of the MHC complexes.
(In general: In an ELISA, binding on a coated surface is turned into a signal by an enzyme label.)

With “255 (VYQKIILKF; listed as Homo sapiens) [compound 255]”, the “Peptide exchange (MHC class I binding score, peptide exchange yield)” value (from here on “Peptide exchange”) was “+++ (50%-75% = +++)”.
The result for “256 (VFGKSAYLF; listed as Homo sapiens) [compound 256]” reads “+++ (50%-75% = +++)”; that for “257 (IFIDNSTQPLHF; listed as Homo sapiens) [compound 257]”, “+++ (50%-75% = +++)”; that for “258 (AYAQLGYLL; listed as Homo sapiens) [compound 258]”, “+++ (50%-75% = +++)”.
The entry for “259 (YFIKSPPSQLF; listed as Homo sapiens) [compound 259]” is “++ (20%-49% = ++)”; for “260 (VYMNVMTRL; listed as Homo sapiens) [compound 260]” it is “++++ (>=75% = ++++)”.
The result for “261 (GYIKLINFI; listed as Homo sapiens) [compound 261]” reads “++++ (>=75% = ++++)”; that for “262 (VYSSQFETI; listed as Homo sapiens) [compound 262]”, “++++ (>=75% = ++++)”.
With “263 (RYILENHDF; listed as Homo sapiens) [compound 263]”, the “Peptide exchange” value is “+++ (50%-75% = +++)”.
The result for “264 (LYTETRLQF; listed as Homo sapiens) [compound 264]” reads “++++ (>=75% = ++++)”; that for “265 (SYLNEAFSF; listed as Homo sapiens) [compound 265]”, “++++ (>=75% = ++++)”.
For “266 (KYTDWTEFL; listed as Homo sapiens) [compound 266]”, the “Peptide exchange” value is “+++ (50%-75% = +++)”.
For the substance “267 (SFLNIEKTEILF; listed as Homo sapiens) [compound 267]”, the “Peptide exchange” value was “++ (20%-49% = ++)”.
Regarding “268 (IFITKALQI; listed as Homo sapiens) [compound 268]”, the “Peptide exchange” value is on record as “++ (20%-49% = ++)”.
The result for “269 (QYPYLQAFF; listed as Homo sapiens) [compound 269]” reads “+++ (50%-75% = +++)”; that for “270 (YYSQESKVLYL; listed as Homo sapiens) [compound 270]”, “+++ (50%-75% = +++)”.
As for “271 (RFLMKSYSF; listed as Homo sapiens) [compound 271]”, the “Peptide exchange” value is “++++ (>=75% = ++++)”.
The entry for “272 (RYVFPLPYL; listed as Homo sapiens) [compound 272]” is “++++ (>=75% = ++++)”; for “273 (IYGEKLQFIF; listed as Homo sapiens) [compound 273]” it is “+++ (50%-75% = +++)”.
Turning to “274 (KQLDIANYELF; listed as Homo sapiens) [compound 274]”, the “Peptide exchange” value was “++++ (>=75% = ++++)”.
The result for “275 (KYGTLDVTF; listed as Homo sapiens) [compound 275]” reads “++++ (>=75% = ++++)”; that for “276 (QYLDVLHAL; listed as Homo sapiens) [compound 276]”, “++++ (>=75% = ++++)”.
The entry for “279 (VWLPASVLF; listed as Homo sapiens) [compound 279]” is “+++ (50%-75% = +++)”.
The entry for “280 (TYNPNLQDKL; listed as Homo sapiens) [compound 280]” is “++++ (>=75% = ++++)”.
In the case of “281 (NYSPGLVSLIL; listed as Homo sapiens) [compound 281]”, the “Peptide exchange” value is “+++ (50%-75% = +++)”.
As for “282 (NYLVDPVTI; listed as Homo sapiens) [compound 282]”, the “Peptide exchange” value is “+++ (50%-75% = +++)”.
The result for “283 (EYQEIFQQL; listed as Homo sapiens) [compound 283]” reads “+++ (50%-75% = +++)”; that for “284 (DYLKDPVTI; listed as Homo sapiens) [compound 284]”, “+++ (50%-75% = +++)”; that for “285 (VYVGDALLHAI; listed as Homo sapiens) [compound 285]”, “+++ (50%-75% = +++)”.
Take “286 (SYGTILSHI; listed as Homo sapiens) [compound 286]”: the “Peptide exchange” value is listed as “++++ (>=75% = ++++)”.
For the substance “287 (IYNPNLLTASKF; listed as Homo sapiens) [compound 287]”, the “Peptide exchange” value is given as “+++ (50%-75% = +++)”.
The entry for “288 (VYPDTVALTF; listed as Homo sapiens) [compound 288]” is “++ (20%-49% = ++)”.
In the case of “289 (FFHEGQYVF; listed as Homo sapiens) [compound 289]”, the “Peptide exchange” value is “++++ (>=75% = ++++)”.
The result for “290 (KYGDFKLLEF; listed as Homo sapiens) [compound 290]” reads “++++ (>=75% = ++++)”; that for “291 (YYLGSGRETF; listed as Homo sapiens) [compound 291]”, “+++ (50%-75% = +++)”.
Turning to “292 (FYPQIINTF; listed as Homo sapiens) [compound 292]”, the “Peptide exchange” value is “++++ (>=75% = ++++)”.
The entry for “293 (VYPHFSTTNLI; listed as Homo sapiens) [compound 293]” is “++++ (>=75% = ++++)”.
As to “294 (RFPVQGTVTF; listed as Homo sapiens) [compound 294]”, the “Peptide exchange” value is “+++ (50%-75% = +++)”.
As for “295 (SYLVIHERI; listed as Homo sapiens) [compound 295]”, the “Peptide exchange” value is on record as “+++ (50%-75% = +++)”.
As for “296 (SYQVIFQHF; listed as Homo sapiens) [compound 296]”, the “Peptide exchange” value is “++++ (>=75% = ++++)”.
As to “297 (TYIDTRTVF; listed as Homo sapiens) [compound 297]”, the “Peptide exchange” value is “++++ (>=75% = ++++)”.
The entry for “298 (AYKSEVVYF; listed as Homo sapiens) [compound 298]” is “++++ (>=75% = ++++)”.
The entry for “299 (KYQYVLNEF; listed as Homo sapiens) [compound 299]” is “+++ (50%-75% = +++)”; for “300 (TYPSQLPSL; listed as Homo sapiens) [compound 300]” it is “+++ (50%-75% = +++)”.
The entry for “301 (KFDDVTMLF; listed as Homo sapiens) [compound 301]” is “++++ (>=75% = ++++)”.
Take “302 (LYLPVHYGF; listed as Homo sapiens) [compound 302]”: the “Peptide exchange” value is recorded as “+++ (50%-75% = +++)”.
Turning to “303 (LYSVIKEDF; listed as Homo sapiens) [compound 303]”, the “Peptide exchange” value was “+++ (50%-75% = +++)”.
As for “304 (EYNEVANLF; listed as Homo sapiens) [compound 304]”, the “Peptide exchange” value was “+++ (50%-75% = +++)”.
The entry for “305 (NYENKQYLF; listed as Homo sapiens) [compound 305]” is “++++ (>=75% = ++++)”; for “306 (VYPAEQPQI; listed as Homo sapiens) [compound 306]” it is “+++ (50%-75% = +++)”.
Consider “307 (GYAFTLPLF; listed as Homo sapiens) [compound 307]”, for which the “Peptide exchange” value is “+++ (50%-75% = +++)”.
On to “308 (TFDGHGVFF; listed as Homo sapiens) [compound 308]”, for which the “Peptide exchange” value is “+++ (50%-75% = +++)”.
The entry for “309 (KYYRQTLLF; listed as Homo sapiens) [compound 309]” is “++ (20%-49% = ++)”; for “310 (IYAPTLLVF; listed as Homo sapiens) [compound 310]” it is “+++ (50%-75% = +++)”.
Take “311 (EYLQNLNHI; listed as Homo sapiens) [compound 311]”: the “Peptide exchange” value was “++++ (>=75% = ++++)”.
In the case of “312 (SYTSVLSRL; listed as Homo sapiens) [compound 312]”, the “Peptide exchange” value is “+++ (50%-75% = +++)”.
Regarding “313 (KYTHFIQSF; listed as Homo sapiens) [compound 313]”, the “Peptide exchange” value is reported as “++++ (>=75% = ++++)”.
